According to patent publication US4757080A, “1,4-dihydropyridine derivatives” (Heumann Pharma GmbH & Co., priority 1986, dated 1988):

Tests used:
[1] = molecular target: T1, isolated guineapig's ileum (Cavia porcellus); experiment: calcium antagonistic activity on isolated guineapig's ileum stimulated with barium chloride; details: read-out: pA2-value (BaCl2) (converted)
T1 construct: isolated guineapig's ileum; from tissue; host or cells: isolated guinea pig ileum

H2-receptor = molecular target: T2, H2-receptor (Cavia porcellus, UniProt P47747); experiment: H2 agonistic activity (pD2-values), method of J. M. van Rossum, cumulative dose-response curves in isolated organs
T2 construct: Technique for the making of dose-response curves in isolated organs; from tissue
Excerpt: Technique for the making of dose-response curves in isolated organs and the evaluation of drug parameters, Arch. Intern. Pharmacodyn. Therap.

[2] = test system: arterial resistance, coronary dilatation, activity of the heart; details: in words, background, cited from earlier work

T2 sequence (P47747 whole entry): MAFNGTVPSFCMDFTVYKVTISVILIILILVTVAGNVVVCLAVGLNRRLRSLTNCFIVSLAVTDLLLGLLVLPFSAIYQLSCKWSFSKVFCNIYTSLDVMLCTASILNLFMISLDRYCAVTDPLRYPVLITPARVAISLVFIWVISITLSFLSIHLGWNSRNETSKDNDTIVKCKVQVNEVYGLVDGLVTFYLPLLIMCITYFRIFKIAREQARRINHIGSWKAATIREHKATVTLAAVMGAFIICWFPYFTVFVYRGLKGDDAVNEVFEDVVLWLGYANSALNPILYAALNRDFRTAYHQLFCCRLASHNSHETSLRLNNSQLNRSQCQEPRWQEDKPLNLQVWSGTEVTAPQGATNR
T1 sequence (O35505 whole entry): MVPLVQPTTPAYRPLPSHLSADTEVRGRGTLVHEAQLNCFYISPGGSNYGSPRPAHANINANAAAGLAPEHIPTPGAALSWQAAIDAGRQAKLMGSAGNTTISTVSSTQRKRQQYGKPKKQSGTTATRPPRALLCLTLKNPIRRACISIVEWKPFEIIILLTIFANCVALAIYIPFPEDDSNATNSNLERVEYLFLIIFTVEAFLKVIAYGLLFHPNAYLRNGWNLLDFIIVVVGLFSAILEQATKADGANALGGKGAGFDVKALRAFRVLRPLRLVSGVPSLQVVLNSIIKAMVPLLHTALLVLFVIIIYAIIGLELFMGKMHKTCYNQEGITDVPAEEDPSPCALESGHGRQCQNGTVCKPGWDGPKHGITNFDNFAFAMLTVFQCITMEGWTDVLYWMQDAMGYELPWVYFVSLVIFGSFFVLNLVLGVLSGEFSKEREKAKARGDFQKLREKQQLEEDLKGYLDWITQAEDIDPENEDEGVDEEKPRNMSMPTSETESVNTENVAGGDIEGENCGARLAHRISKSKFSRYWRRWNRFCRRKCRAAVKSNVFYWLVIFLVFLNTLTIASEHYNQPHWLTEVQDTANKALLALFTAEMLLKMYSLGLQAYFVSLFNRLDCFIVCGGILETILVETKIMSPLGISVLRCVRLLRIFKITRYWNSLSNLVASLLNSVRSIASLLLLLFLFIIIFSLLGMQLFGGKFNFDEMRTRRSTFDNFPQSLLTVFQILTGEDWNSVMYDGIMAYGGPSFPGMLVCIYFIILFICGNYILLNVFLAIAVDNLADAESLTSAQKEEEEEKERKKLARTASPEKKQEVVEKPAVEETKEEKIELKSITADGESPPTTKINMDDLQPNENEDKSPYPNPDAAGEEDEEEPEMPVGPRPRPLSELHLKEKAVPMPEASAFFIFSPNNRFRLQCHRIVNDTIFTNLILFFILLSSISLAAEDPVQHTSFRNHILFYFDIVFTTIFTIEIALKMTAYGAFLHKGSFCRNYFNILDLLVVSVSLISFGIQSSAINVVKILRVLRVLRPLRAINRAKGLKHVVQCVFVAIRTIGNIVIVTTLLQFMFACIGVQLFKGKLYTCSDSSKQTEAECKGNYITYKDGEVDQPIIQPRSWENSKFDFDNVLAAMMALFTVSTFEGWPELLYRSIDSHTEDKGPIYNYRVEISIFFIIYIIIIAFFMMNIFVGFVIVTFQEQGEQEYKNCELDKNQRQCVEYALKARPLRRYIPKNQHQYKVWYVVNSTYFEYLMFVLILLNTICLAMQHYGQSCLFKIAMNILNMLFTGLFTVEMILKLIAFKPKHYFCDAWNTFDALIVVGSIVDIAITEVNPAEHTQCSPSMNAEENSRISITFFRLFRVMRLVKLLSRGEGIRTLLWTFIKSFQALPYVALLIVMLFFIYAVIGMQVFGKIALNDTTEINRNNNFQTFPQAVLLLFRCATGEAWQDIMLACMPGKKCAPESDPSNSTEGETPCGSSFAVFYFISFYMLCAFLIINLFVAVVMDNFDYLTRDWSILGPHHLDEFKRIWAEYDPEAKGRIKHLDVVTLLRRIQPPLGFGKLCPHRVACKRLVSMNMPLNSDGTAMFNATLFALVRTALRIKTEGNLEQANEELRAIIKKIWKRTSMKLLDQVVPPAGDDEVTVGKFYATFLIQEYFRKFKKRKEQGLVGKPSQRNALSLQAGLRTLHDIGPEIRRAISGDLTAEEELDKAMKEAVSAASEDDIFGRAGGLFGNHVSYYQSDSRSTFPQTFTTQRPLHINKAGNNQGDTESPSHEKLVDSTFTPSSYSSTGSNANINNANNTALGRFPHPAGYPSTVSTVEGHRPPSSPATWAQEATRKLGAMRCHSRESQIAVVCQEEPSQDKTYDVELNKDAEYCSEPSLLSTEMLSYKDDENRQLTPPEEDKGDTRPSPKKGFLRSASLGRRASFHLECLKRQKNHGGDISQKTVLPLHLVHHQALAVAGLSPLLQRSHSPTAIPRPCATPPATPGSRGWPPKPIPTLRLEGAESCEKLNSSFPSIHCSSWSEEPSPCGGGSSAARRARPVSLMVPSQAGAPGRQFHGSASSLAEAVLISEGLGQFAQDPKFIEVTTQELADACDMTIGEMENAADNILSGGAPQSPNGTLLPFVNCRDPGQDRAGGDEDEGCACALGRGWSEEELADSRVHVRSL

SMILES: COC(=O)C1=C(C)NC(C)=C(C(=O)OCCNC(=N)NCCCc2c[nH]cn2)C1c1ccccc1[N+](=O)[O-] (stereo not shown) [Example 1, N^1-[2-[1,4-Dihydro-2,6-dimethyl-3-methoxycarbonyl-4-(2-nitrophenyl)-pyridine-5-carboxy]ethyl]-N^2-[3-(1H-imidazol-4-yl)propyl]-guanidine-hydriodide]
- Kb [1]: 38 nM
- EC50 (H2-receptor): 47.9 nM

SMILES: COC(=O)C1=C(C)NC(C)=C(C(=O)OC)C1c1ccccc1[N+](=O)[O-] [Nifedipine, 1,4-dihydro-2,6-dimethyl-4-(2-nitrophenyl)-3,5-pyridine carboxylic acid dimethyl ester]
- arterial resistance [2]: lowers the arterial resistance
- coronary dilatory effect [2]: very marked coronary dilatory effect
- inhibition of the activity of the heart ([2]; therapeutic doses): without inhibiting the activity of the heart

SMILES: COC(=O)C1=C(C)NC(C)=C(C(=O)OCCNC(=N)NCCCc2c[nH]cn2)C1c1cccc(Cl)c1Cl (stereo not shown) [Example 8, N^1-[2-[1,4-Dihydro-2,6-dimethyl-3-methoxycarbonyl-4-(2,3-dichlorophenyl)-pyridine-5-carboxy]ethyl]-N^2-[3-(1H-imidazol-4-yl)propyl]-guanidine hydriodide]
- Kb [1]: 30.2 nM
- EC50 (H2-receptor): 331 nM

SMILES: Cc1[nH]cnc1CSCCNC(=N)NCCCc1c[nH]cn1 [Impromidine, reference compound]
- EC50 (H2-receptor): 21.4 nM

SMILES: COC(=O)C1=C(C)NC(C)=C(C(=O)OCCCCCCNC(=N)NCCCc2c[nH]cn2)C1c1cccc([N+](=O)[O-])c1 (stereo not shown) [Example 7, N^1-[6[1,4-dihydro-2,6-dimethyl-3-methoxycarbonyl-4-(3-nitrophenyl)-pyridine-5-carboxy]hexyl]-N^2 [3-(1H-imidazol-4-yl)propyl]-guanidine hydriodide]
- Kb [1]: 110 nM
- EC50 (H2-receptor): 38.9 nM
